Data on five molecules can be found in patent publication US20090012140A1, “Preparation of Telmisartan Salts with Improved Solubility” (LEK PHARMACEUTICALS D.D, priority 2004, published 2009).

Data set [1] is described as follows: Amount dissolved after 30 minutes at 37° C. (50 mg of compound in 100 ml baker, stirring at 600/min). The class given is physicochemical. Particulars: for C30 min: 30 minutes, 37° C., 600/min; for Solubility compared with sodium salt of telmisartan manufactured by lyophilization: comparison in words. As for the experimental part: (§1) In order to prepare a pharmaceutical composition physical properties were measured. The solubility of the telmisartan of its salt in accordance with our invention surpasses the solubility of known forms of telmisartan, and are above 10 μg/ml in phosphate buffer pH=6.8 and above 50 μg/ml in a physiologically relevant medium if measured as above. […] The salts are also very soluble in water (i.e dissolving approximately 500 mg/mL of Na salt Form 2 produces a very viscous solution, which can hardly be stirred with a magnetic stirrer.

The next data set in a line: Solubility in water. Type of data set: physicochemical. To be noted: produces a very viscous solution. As for the experimental part:
as §1

The mark [2] stands for this setting: medium pH = 1.2, 50 mg in 100 ml.
[3] abbreviates: phosphate buffer pH = 6.8, 50 mg in 100 ml.
Setting [4] is: physiologically relevant medium: phosphate buffer pH 6.76 + sodium taurocholate (2.5 mM) + lecitin (0.5 mM).

Bounds are passed on as bounds.

Take `CCCc1nc2c(C)cc(-c3nc4ccccc4n3C)cc2n1Cc1ccc(-c2ccccc2C(=O)O)cc1` [Form A, telmisartan]: the C30 min in data set [1] (setting [2]) was >500 µg/mL; in data set [1] (setting [3]), 0.9 µg/mL; in data set [1] (setting [4]) it was 1.1 µg/mL.
For the molecule `CCCc1nc2c(C)cc(-c3nc4ccccc4n3C)cc2n1Cc1ccc(-c2ccccc2C(=O)[O-])cc1.[Na+]` [Na salt Form 2, Crystalline Na Salt of Telmisartane Form 2], the “Solubility compared with sodium salt of telmisartan manufactured by lyophilization” value in data set [1] (listed as crystalline sodium salt of telmisartan) is on record as “surpasses that of the sodium salt of telmisartan manufactured by lyophilization”. Further, in the data set “Solubility in water”, the “Amount dissolving in water” value was “approximately 500 mg/mL”.
As for `CCCc1nc2c(C)cc(-c3nc4ccccc4n3C)cc2n1Cc1ccc(-c2ccccc2C(=O)O)cc1` [Amorphous telmisartan, telmisartan], the C30 min in data set [1] (setting [3]) came out at 17.6 µg/mL; in data set [1] (setting [4]), 87.5 µg/mL.
For `CCCc1nc2c(C)cc(-c3nc4ccccc4n3C)cc2n1Cc1ccc(-c2ccccc2C(=O)[O-])cc1.[Na+]`, the “Solubility compared with sodium salt of telmisartan manufactured by lyophilization” value in data set [1] is “substantially surpasses that manufactured by lyophilization”.
As to `CCCc1nc2c(C)cc(-c3nc4ccccc4n3C)cc2n1Cc1ccc(-c2ccccc2C(=O)[O-])cc1.[Na+]` [Amorphous Na salt of telmisartan, Na Salt of Telmisartan], the figures for the C30 min in data set [1] (setting [2]), in data set [1] (setting [3]) and in data set [1] (setting [4]) were 394.6 µg/mL, 29 µg/mL and 167.3 µg/mL, respectively.
